Test results as given in patent US9422267B2, “Fused pyrimidine compounds and use thereof” (Medivation Technologies, Inc., priority 2012, dated 2016).
Each block holds one compound with its values, some of them ahead of it.

Experiments:
AurA = target: T1, AurA (Homo sapiens, UniProt O14965); assay: Caliper kinase profiling: AurA
T1 sequence (O14965 1-403): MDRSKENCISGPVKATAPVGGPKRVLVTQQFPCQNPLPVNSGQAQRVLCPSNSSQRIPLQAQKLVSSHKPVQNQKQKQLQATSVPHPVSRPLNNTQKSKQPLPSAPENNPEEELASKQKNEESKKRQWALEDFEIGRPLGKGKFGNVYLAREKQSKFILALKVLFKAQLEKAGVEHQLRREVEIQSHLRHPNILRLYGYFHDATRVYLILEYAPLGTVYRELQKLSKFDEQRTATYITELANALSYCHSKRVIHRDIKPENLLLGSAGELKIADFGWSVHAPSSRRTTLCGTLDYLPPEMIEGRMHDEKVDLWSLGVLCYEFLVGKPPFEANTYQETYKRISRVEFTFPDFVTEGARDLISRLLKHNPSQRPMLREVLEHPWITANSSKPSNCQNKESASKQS
Method: (§1) The compound was tested at concentrations of 1.0×10^−8 and 1.0×10^−9 M in the RapidKinase192™ panel in duplicate. […] The screening was performed using the Caliper EZReader2, a 4-sipper LabChip, and ProfilerPro Kinase Selectivity Assay Kits 1 and 2. The assay measures the conversion of a fluorescent peptide substrate to a phosphorylated product. Briefly, the reaction mixture was introduced through a capillary sipper onto the microfluidic chip, where the substrate and product were electrophoretically separated and detected by laser-induced fluorescence. The time-dependent fluorescence signal indicates the extent of the reaction.
(§2) The assays were conducted using the Caliper LabChip 3000 and a 12-sipper LabChip as described above.

AurC = target: T2, AurC (Homo sapiens, UniProt Q9UQB9); assay: Caliper kinase profiling: AurC
T2 sequence (Q9UQB9 1-309): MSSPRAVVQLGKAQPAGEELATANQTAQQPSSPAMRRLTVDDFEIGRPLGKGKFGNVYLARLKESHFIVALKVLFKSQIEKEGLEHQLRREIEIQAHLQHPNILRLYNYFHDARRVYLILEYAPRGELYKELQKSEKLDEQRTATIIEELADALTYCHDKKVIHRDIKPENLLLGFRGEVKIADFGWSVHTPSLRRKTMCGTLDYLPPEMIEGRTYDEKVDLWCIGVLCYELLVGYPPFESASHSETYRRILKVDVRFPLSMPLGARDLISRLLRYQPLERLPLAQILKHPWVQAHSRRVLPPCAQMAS
Method: as §1, §2

PYK2 = target: T3, PYK2 (Homo sapiens, UniProt Q14289); assay: Caliper kinase profiling: PYK2; assay type: biochemical; details: for inhibition at 0.01 µM: PYK2, 10 nM, read-out: Average % Inh @ 10 nM
T3 construct: purchased Caliper LifeSciences (ProfilerPro Kinase Selectivity Assay Kits)

PhKg2 = PhKg2 (Homo sapiens, UniProt P15735); assay: Caliper kinase profiling: PhKg2; assay type: biochemical; details: PhKg2, 1 μM; read-out: Average % Inh @ 1 μM
INSR = target: T4, INSR (Homo sapiens, UniProt P06213); assay: Caliper kinase profiling: INSR; assay type: biochemical; details: for inhibition at 0.01 µM: 10 nM, read-out: Average % Inh @ 10 nM
T4 construct: purchased Caliper LifeSciences (ProfilerPro Kinase Selectivity Assay Kits)
Method: as §1

Arg = target: T5, Arg (Homo sapiens, UniProt P42684); assay: Caliper kinase profiling: Arg; assay type: biochemical
T5 construct: purchased Caliper LifeSciences (ProfilerPro Kinase Selectivity Assay Kits)

ROS(ROS1) = target: T6, ROS(ROS1) (Homo sapiens, UniProt P08922); assay: Caliper kinase profiling: ROS(ROS1); assay type: biochemical; details: for inhibition at 0.01 µM: 10 nM, read-out: Average % Inh @ 10 nM
T6 construct: purchased Caliper LifeSciences (ProfilerPro Kinase Selectivity Assay Kits)
From the text: ROS1 is a proto-oncogene and is highly expressed in many cancers.

SRC = SRC (Homo sapiens, UniProt P12931); assay: Caliper kinase profiling: SRC; assay type: biochemical
[1] = system: human colon cancer COLO-205 cells; assay: Efficacy in xenograft model of human colon cancer; assay type: in vivo, mice
Method: To evaluate the efficacy of tumor growth inhibition, the compound 8b was studied using human cancer mouse models. The models are prepared by subcutaneously or orthotopically implanting mice with human cancer cells. When the tumor size of the mice develops (e.g., reaches 100 mm^3), the mice are divided into groups for treatment with compound 8b (where different groups receiving the compound 8b may be administered different amounts of the compound 8b) or are provided no compound as a control. The mice are treated (e.g., orally administered a compound of the invention) for a period of time. During the course of the study, the tumor is measured and the weight of the mice is determined. After the treatment period, the mice are sacrificed shortly (e.g. 1 or 2 hours) after the final dose. Blood and tissue are collected for biochemical analysis.
To evaluate the efficacy of tumor growth inhibition, compound 8b was studied using a human colon cancer mouse model. […] Tumor volume and mouse body weight were monitored over the 20 day experiment. […]
The appropriate amount of compound 8b was sonicated in a PEG-400 solution (80% w/v in case of Example B6B; and 50% w/v in case of Example B6C) to completely dissolve the compound, followed by dropwise addition of the required amount of H2O. […] During the course of the study, the tumor was measured and the weight of the mice was determined. […]

ASPC-1 = assay: Cell viability: pancreatic cancer cell line ASPC-1; assay type: cell-based; details: Homo sapiens, ASPC1; ASPC-1 pancreatic cancer cell line
Method: This assay quantitates the ATP present in order to determine the number of viable cells in culture. Briefly, the compounds were incubated with the cells for 72 h, followed by cell lysis. The resulting luminescent signal is proportional to the amount of ATP present and, therefore, directly proportional to the number of cells present in culture.
Analogous studies utilizing pancreatic cancer cell lines such as ASPC-1 and PANC-1 can be performed with compounds of the invention.

[2] = read-out: Average % Inh @ 10 nM
[3] = read-out: Average % Inh @ 100 nM
[4] = 100 nM, read-out: Average % Inh @ 100 nM
[5] = 1 μM, read-out: Average % Inh @ 1 μM
[6] = 10 nM, read-out: Average % Inh @ 10 nM

T6 sequence (P08922 28-2347): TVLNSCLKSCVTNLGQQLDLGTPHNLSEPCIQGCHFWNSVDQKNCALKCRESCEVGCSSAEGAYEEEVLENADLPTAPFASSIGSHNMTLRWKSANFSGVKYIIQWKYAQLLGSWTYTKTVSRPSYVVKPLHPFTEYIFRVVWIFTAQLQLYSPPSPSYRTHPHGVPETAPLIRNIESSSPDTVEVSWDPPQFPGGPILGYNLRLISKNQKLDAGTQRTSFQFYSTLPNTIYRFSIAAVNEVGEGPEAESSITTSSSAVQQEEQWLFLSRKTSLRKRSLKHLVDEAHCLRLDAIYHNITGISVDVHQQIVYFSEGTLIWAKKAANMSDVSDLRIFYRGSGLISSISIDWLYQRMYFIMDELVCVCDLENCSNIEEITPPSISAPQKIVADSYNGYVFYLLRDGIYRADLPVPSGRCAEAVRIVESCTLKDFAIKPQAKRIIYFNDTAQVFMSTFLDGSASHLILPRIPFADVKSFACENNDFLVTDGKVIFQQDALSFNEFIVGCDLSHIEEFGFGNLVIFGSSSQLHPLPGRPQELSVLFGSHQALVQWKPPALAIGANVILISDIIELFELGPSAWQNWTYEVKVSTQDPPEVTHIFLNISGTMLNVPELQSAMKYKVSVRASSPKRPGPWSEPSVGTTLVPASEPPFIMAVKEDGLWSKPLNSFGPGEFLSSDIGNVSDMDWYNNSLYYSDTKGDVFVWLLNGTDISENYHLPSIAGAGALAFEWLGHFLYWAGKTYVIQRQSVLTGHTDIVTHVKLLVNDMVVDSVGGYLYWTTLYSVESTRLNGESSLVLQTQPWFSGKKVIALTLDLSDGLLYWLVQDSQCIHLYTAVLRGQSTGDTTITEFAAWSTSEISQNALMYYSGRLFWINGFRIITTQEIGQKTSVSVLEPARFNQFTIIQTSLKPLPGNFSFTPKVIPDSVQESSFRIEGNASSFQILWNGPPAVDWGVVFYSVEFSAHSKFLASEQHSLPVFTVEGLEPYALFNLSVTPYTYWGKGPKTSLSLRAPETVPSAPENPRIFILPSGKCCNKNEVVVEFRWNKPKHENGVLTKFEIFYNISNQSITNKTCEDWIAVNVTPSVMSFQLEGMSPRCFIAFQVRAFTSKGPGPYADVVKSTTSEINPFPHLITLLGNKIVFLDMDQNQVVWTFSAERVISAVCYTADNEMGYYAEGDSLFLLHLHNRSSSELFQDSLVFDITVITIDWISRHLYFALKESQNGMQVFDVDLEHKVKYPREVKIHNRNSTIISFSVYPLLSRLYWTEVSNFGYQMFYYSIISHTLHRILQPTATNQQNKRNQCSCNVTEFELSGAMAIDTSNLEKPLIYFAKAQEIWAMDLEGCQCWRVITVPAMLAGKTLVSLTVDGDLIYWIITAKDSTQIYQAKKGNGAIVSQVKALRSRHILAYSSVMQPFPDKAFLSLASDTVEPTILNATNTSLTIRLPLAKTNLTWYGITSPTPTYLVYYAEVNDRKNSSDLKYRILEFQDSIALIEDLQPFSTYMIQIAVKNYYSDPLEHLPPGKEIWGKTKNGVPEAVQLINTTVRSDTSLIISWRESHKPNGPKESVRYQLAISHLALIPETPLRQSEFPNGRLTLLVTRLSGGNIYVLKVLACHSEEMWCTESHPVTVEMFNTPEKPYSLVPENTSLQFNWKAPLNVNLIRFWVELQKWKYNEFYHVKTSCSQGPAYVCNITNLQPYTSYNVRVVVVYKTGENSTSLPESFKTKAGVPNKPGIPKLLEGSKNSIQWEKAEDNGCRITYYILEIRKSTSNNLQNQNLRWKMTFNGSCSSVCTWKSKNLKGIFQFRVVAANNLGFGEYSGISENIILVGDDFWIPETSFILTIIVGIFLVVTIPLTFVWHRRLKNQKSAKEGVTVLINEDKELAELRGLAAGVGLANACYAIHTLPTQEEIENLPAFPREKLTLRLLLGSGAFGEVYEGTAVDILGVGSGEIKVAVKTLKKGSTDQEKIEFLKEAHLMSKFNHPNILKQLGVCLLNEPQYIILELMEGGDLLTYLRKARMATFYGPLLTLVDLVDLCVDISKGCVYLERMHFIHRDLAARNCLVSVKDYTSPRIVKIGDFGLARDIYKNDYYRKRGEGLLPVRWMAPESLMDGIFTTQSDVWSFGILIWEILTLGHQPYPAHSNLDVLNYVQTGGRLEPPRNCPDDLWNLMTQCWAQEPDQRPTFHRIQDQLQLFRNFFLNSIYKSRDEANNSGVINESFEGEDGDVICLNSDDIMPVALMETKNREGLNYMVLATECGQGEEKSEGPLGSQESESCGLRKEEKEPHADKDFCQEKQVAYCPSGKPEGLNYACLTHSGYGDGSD
Sequence of SRC (P12931 whole entry): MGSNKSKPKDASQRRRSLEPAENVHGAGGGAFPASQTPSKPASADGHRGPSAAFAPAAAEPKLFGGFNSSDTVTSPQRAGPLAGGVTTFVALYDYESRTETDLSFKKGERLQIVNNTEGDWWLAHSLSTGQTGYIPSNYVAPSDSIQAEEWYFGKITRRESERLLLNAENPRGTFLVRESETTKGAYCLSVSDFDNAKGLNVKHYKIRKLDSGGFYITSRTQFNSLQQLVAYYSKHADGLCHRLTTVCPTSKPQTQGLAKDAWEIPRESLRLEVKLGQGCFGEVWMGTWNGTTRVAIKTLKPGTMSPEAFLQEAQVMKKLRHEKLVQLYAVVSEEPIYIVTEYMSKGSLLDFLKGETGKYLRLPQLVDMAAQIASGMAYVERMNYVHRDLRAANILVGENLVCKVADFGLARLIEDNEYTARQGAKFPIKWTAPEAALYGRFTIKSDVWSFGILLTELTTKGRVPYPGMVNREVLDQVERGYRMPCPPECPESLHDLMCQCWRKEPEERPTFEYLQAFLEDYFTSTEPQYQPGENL
T3 sequence (Q14289 whole entry): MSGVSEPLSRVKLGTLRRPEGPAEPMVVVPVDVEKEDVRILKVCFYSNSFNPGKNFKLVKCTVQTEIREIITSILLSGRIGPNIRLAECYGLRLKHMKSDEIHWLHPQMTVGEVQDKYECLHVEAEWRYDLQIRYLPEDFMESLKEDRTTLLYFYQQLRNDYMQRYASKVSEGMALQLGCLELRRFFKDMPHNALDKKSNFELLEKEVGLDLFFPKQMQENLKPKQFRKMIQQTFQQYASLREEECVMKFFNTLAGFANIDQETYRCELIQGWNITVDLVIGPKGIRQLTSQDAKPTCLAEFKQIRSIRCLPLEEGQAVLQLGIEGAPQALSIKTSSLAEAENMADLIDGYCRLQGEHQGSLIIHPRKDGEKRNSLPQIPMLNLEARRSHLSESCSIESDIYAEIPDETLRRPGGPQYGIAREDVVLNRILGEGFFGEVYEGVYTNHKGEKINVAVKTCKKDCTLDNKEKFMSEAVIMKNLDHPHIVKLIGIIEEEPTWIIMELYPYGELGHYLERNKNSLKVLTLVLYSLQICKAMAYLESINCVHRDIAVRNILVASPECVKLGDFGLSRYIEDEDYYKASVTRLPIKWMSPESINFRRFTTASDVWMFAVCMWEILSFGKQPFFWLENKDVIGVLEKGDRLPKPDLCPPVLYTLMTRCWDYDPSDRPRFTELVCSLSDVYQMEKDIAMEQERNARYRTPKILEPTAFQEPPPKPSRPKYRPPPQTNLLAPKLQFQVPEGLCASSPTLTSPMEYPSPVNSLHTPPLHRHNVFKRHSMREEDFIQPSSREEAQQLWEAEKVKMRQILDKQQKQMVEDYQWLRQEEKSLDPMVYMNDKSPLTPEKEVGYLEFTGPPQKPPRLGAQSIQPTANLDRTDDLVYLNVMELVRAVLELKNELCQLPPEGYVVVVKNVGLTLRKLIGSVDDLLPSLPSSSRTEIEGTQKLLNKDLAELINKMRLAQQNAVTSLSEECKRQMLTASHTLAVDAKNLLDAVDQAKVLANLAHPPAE
T5 sequence (P42684 whole entry): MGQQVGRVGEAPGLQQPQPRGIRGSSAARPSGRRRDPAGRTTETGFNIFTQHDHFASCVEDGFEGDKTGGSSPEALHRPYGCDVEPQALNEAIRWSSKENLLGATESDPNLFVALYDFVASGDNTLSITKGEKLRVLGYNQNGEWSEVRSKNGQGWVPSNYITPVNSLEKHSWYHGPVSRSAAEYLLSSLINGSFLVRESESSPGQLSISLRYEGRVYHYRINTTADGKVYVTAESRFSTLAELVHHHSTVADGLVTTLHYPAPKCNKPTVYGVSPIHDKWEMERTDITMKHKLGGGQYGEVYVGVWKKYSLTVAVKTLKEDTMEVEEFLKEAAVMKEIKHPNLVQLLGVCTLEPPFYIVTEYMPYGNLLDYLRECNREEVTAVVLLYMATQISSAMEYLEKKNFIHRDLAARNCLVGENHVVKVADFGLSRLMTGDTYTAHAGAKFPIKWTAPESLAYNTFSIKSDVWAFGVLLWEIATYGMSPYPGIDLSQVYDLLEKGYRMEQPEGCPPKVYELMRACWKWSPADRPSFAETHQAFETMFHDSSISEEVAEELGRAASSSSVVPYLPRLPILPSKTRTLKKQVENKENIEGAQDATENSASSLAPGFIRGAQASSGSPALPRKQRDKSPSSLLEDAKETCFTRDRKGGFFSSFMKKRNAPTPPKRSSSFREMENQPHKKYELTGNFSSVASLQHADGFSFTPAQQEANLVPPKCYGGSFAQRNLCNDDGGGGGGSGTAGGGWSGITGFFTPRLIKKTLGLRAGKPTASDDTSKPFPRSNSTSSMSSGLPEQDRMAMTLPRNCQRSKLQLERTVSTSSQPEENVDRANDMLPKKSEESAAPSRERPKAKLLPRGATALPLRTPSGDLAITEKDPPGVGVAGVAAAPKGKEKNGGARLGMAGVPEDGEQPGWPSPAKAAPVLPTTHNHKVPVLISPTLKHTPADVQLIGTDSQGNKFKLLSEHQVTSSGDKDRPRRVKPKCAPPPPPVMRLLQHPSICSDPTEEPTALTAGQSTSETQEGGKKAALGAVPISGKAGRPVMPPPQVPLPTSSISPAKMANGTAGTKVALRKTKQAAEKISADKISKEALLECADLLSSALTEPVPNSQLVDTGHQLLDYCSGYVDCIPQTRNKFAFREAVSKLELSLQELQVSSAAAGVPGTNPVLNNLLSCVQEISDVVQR

inhibition at 0.01 µM (AurA; [2]): < 39%
inhibition at 0.1 µM (AurA; [3]): > 60%
inhibition at 1 µM (AurA; read-out: Average % Inh @ 1 μM): > 60%
inhibition at 0.01 µM (AurC; [2]): > 60%
inhibition at 0.1 µM (AurC; [3]): > 60%
inhibition at 1 µM (AurC; read-out: Average % Inh @ 1 μM): > 60%
inhibition at 0.01 µM (PYK2): < 39%
inhibition at 0.1 µM (PYK2; PYK2, 100 nM, read-out: Average % Inh @ 100 nM): > 60%
inhibition at 1 µM (PYK2; PYK2, 1 μM, read-out: Average % Inh @ 1 μM): > 60%
inhibition at 1 µM (PhKg2): 40 to 59%
inhibition at 0.01 µM (INSR): < 39%
inhibition at 0.1 µM (INSR; [4]): > 60%
inhibition at 1 µM (INSR; [5]): > 60%
inhibition at 0.01 µM (Arg; [6]): < 39%
inhibition at 0.1 µM (Arg; [4]): < 39%
inhibition at 1 µM (Arg; [5]): > 60%
inhibition at 0.01 µM (ROS(ROS1); ROS (ROS1)): > 60%
inhibition at 0.1 µM (ROS(ROS1); ROS (ROS1), 100 nM, read-out: Average % Inh @ 100 nM): > 60%
inhibition at 1 µM (ROS(ROS1); ROS (ROS1), 1 μM, read-out: Average % Inh @ 1 μM): > 60%
inhibition at 0.01 µM (SRC; [6]): < 39%
inhibition at 0.1 µM (SRC; [4]): > 60%
inhibition at 1 µM (SRC; [5]): > 60%
Compound: O=C(Nc1ccc(F)nc1)C1CCCN1c1nc2c(c(Nc3cc(C4CC4)[nH]n3)n1)CCC2 (single isomer, unassigned) [Compound 2b, 1-(4-(5-cyclopropyl-1H-pyrazol-3-ylamino)-6,7-dihydro-5H-cyclopenta[d]pyrimidin-2-yl)-N-(6-fluoropyridin-3-yl)pyrrolidine-2-carboxamide]

IC50 (AurA): 0.132 µM
IC50 (AurC): 0.0414 µM
inhibition at 0.001 µM (PYK2; PYK2, 1 nM, read-out: Average % Inh @ 1 nM): < 39%
inhibition at 0.01 µM (PYK2): 40 to 59%
inhibition at 0.001 µM (INSR; 1 nM, read-out: Average % Inh @ 1 nM): 40 to 59%
inhibition at 0.01 µM (INSR): > 60%
IC50 (ASPC-1): 0.195 µM
IC50 (ROS(ROS1); ROS1, range of concentrations from 0.03 nM to 1): 0.015 µM
inhibition at 0.001 µM (ROS(ROS1); ROS (ROS1), 1 nM, read-out: Average % Inh @ 1 nM): 40 to 59%
inhibition at 0.01 µM (ROS(ROS1); ROS (ROS1)): > 60%
Compound: CC(C)c1cc(Nc2nc(N3CCCC3C(=O)Nc3ccc(F)nc3)nc3c2CCC3)n[nH]1 (single isomer, unassigned) [Compound 8b]
tumor burden ([1]; COLO205 colon cancer model, nude mice, 1, 3, 10, 15 mg/kg oral, 20 day experiment (FIG. 1)): dose-dependently and significantly reduced tumor burden
body weights of the mice ([1]; COLO205 xenograft model (FIG. 3)): dose-dependently reduced body weights
